# Assay results as given in article PMC10702058, “Phase I dose escalation study and pilot efficacy analysis of LXI-15029, a novel mTOR dual inhibitor, in Chinese subjects with advanced malignant solid tumors” (BMC Cancer, 2023).
# “Also recorded” adds a separate entry of the source.
# Experiments:
# [1] = Plasma pharmacokinetics of LXI-15029 (LC-MS/MS, non-compartmental analysis); format: in vivo, human; settings: for AUC / Cmax at 28 day / AUC(0-inf) / Cmax: human, plasma, geometric mean (coefficient of variation); for AUC / Cmax at 28 day / RacAUC (accumulation ratio) / RacCmax (accumulation ratio) / t1/2ss: multiple dose, cycle 1 day 28; for AUC(0-inf) / Cmax / CL/F / V/F: single dose, cycle 1 day 1; for RacAUC (accumulation ratio) / RacCmax (accumulation ratio) / t1/2ss / CL/F / V/F: arithmetic mean ± standard deviation
# Experimental: Blood samples for PK analysis of LXI-15029 were collected on day 1 (pre-dose, 20 min, 40 min, 1 h, 1.5 h, 2 h, 3 h, 4 h, 6 h, 8 h, 12 h, 24 h, and 48 h), cycle 1 day 8 (pre-dose), cycle 1 day 15 (pre-dose), and cycle 1 day 28 (pre-dose, 20 min, 40 min, 1 h, 1.5 h, 2 h, 3 h, 4 h, 6 h, 8 h, and 12 h). The blood samples were stored at -70°C until testing. The concentration of LXI-15029 in plasma was measured using the validated liquid chromatography-tandem mass spectrometry (LC–MS/MS) method. The concentration–time information of LXI-15029 was summarized based on pre-dose and post-dose data of each patient, to explore the linearity of exposure with single dose and steady-state situations, the time to reach steady state and the predictability of single to multiple doses PK. PK parameters were calculated separately for single and repeated doses using descriptive statistics. PK analysis was performed by Covance Central Laboratory using the validated software Phoenix WinNonlin Version 8.1 (Pharsight, Mountain View, CA). A standard non-compartmental method was used to calculate the peak plasma concentration (Cmax), time to reach the Cmax (tmax), the total area under the concentration–time curve (AUC0-∞), and the elimination half-life (t1/2).
# [2] = test system: human renal carcinoma, gastric cancer, breast cancer, and lung cancer xenografts; settings: cited from earlier work
compound,measurement,setting,value
CNC(=O)c1cccc(-c2ccc3c(N4C5CCC4COC5)nc(N4CCOC[C@@H]4C)nc3n2)c1 [LXI-15029],AUC,"[1]; oral, 110 mg BID (n = 3)",12900 ng·h/mL
same,Cmax at 28 day,"[1]; oral, 110 mg BID (n = 3)",3930 ng/mL
same,AUC,"[1]; oral, 150 mg BID (n = 4)",25500 ng·h/mL
same,Cmax at 28 day,"[1]; oral, 150 mg BID (n = 4)",5840 ng/mL
same,AUC(0-inf),"[1]; oral, 10 mg BID (n = 3)",111 ng·h/mL
same,Cmax,"[1]; oral, 10 mg BID (n = 3)",66.5 ng/mL
same,AUC(0-inf),"[1]; oral, 20 mg BID (n = 3)",898 ng·h/mL
same,Cmax,"[1]; oral, 20 mg BID (n = 3)",474 ng/mL
same,AUC(0-inf),"[1]; oral, 40 mg BID (n = 3)",1680 ng·h/mL
same,Cmax,"[1]; oral, 40 mg BID (n = 3)",1010 ng/mL
same,AUC(0-inf),"[1]; oral, 60 mg BID (n = 4)",3750 ng·h/mL
same,Cmax,"[1]; oral, 60 mg BID (n = 4)",1340 ng/mL
same,AUC(0-inf),"[1]; oral, 80 mg BID (n = 4)",1870 ng·h/mL
same,Cmax,"[1]; oral, 80 mg BID (n = 4)",1340 ng/mL
same,AUC(0-inf),"[1]; oral, 110 mg BID (n = 3)",5340 ng·h/mL
same,Cmax,"[1]; oral, 110 mg BID (n = 3)",2930 ng/mL
same,AUC(0-inf),"[1]; oral, 150 mg BID (n = 4)",12100 ng·h/mL
same,Cmax,"[1]; oral, 150 mg BID (n = 4)",4140 ng/mL
same,RacAUC (accumulation ratio),[1]; 10 mg BID (n = 3),2.08 ± 1.289
same,RacCmax (accumulation ratio),[1]; 10 mg BID (n = 3),1.96 ± 1.061
same,t1/2ss,[1]; 10 mg BID (n = 3),1.13 ± 0.080 h
same,RacAUC (accumulation ratio),[1]; 20 mg BID (n = 3),0.99 ± 0.260
same,RacCmax (accumulation ratio),[1]; 20 mg BID (n = 3),0.75 ± 0.140
same,t1/2ss,[1]; 20 mg BID (n = 3),1.24 ± 0.167 h
same,RacAUC (accumulation ratio),[1]; 40 mg BID (n = 3),1.00 ± 0.036
same,RacCmax (accumulation ratio),[1]; 40 mg BID (n = 3),1.02 ± 0.180
same,t1/2ss,[1]; 40 mg BID (n = 3),1.14 ± 0.250 h
same,RacAUC (accumulation ratio),[1]; 60 mg BID (n = 4),1.47 ± 0.546
same,RacCmax (accumulation ratio),[1]; 60 mg BID (n = 4),1.37 ± 0.382
same,t1/2ss,[1]; 60 mg BID (n = 4),1.90 ± 0.197 h
same,RacAUC (accumulation ratio),[1]; 80 mg BID (n = 4),1.78 ± 0.268
same,RacCmax (accumulation ratio),[1]; 80 mg BID (n = 4),1.28 ± 0.102
same,t1/2ss,[1]; 80 mg BID (n = 4),1.33 ± 0.068 h
same,RacAUC (accumulation ratio),[1]; 110 mg BID (n = 3),2.51 ± 0.778
same,RacCmax (accumulation ratio),[1]; 110 mg BID (n = 3),1.37 ± 0.352
same,t1/2ss,[1]; 110 mg BID (n = 3),2.33 ± 0.857 h
same,RacAUC (accumulation ratio),[1]; 150 mg BID (n = 4),2.39 ± 0.768
same,RacCmax (accumulation ratio),[1]; 150 mg BID (n = 4),1.36 ± 0.507
same,t1/2ss,[1]; 150 mg BID (n = 4),3.26 ± 1.247 h
same,absorption after oral administration,[1]; oral,absorbed rapidly; also recorded: fast absorbed
same,CL/F,[1]; 10 mg BID (n = 3),99.45 ± 51.035 L/h
same,V/F,[1]; 10 mg BID (n = 3),126.07 ± 40.383 L
same,CL/F,[1]; 20 mg BID (n = 3),24.11 ± 11.940 L/h
same,V/F,[1]; 20 mg BID (n = 3),49.56 ± 19.453 L
same,CL/F,[1]; 40 mg BID (n = 3),24.58 ± 7.772 L/h
same,V/F,[1]; 40 mg BID (n = 3),42.35 ± 25.602 L
same,CL/F,[1]; 60 mg BID (n = 4),16.47 ± 4.677 L/h
same,V/F,[1]; 60 mg BID (n = 4),45.88 ± 14.063 L
same,CL/F,[1]; 80 mg BID (n = 4),48.30 ± 25.396 L/h
same,V/F,[1]; 80 mg BID (n = 4),92.88 ± 47.995 L
same,CL/F,[1]; 110 mg BID (n = 3),24.35 ± 17.791 L/h
same,V/F,[1]; 110 mg BID (n = 3),43.99 ± 17.319 L
same,CL/F,[1]; 150 mg BID (n = 4),12.57 ± 2.022 L/h
same,V/F,[1]; 150 mg BID (n = 4),34.75 ± 12.576 L
same,dose dependence of antitumor activity,"[2]; dose range of 5–40 mg/kg, in vivo preclinical data",dose-dependent
same,antitumor activity in xenograft models,"[2]; tumors with abnormal regulation in the mTOR signaling pathway, ref [25], [26]",selective antitumor effect; also recorded: selective antitumor activity
